{
  "source": "patent US10597388B2",
  "about": "“Pyridazinone herbicides” (FMC CORPORATION, priority 2014, dated 2020)",
  "format_in_all_cases": "in vivo",
  "key": {"[1]": {"test_system": "oat, wild (wild oat, Avena fatua)", "assay": "Test C greenhouse herbicide test, postemergence", "how_it_was_run": "(§1)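 Visual injury scores (0–100, where 100 means complete control) were assigned 13 to 15 d after postemergence application, by comparison with untreated plants. Treated seedlings stood 2 to 18 cm tall, at the 1- to 4-leaf stage.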"}, "kochia (Kochia scoparia)": {"test_system": "kochia (Kochia scoparia)", "assay": "Test C greenhouse herbicide test, postemergence", "how_it_was_run": "as §1"}, "[2]": {"test_system": "ryegrass, Italian (Italian ryegrass, Lolium multiflorum)", "assay": "Test C greenhouse herbicide test, pre- and postemergence", "source_text": "(§2) Seeds of plant species selected from blackgrass (Alopecurus myosuroides), ryegrass, Italian (Italian ryegrass, Lolium multiflorum), wheat (winter wheat, Triticum aestivum), galium (catchweed bedstraw, Galium aparine), corn (Zea mays), large crabgrass, large (large crabgrass, Digitaria sanguinalis), foxtail, giant (giant foxtail, Setaria faberii), johnsongrass (Sorghum halepense), lambsquarters (Chenopodium album), morningglory (Ipomoea coccinea), nutsedge, yellow (yellow nutsedge, Cyperus esculentus), pigweed (Amaranthus retroflexus), ragweed (common ragweed, Ambrosia elatior), soybean (Glycine max), barnyardgrass (Echinochloa crus-galli), oilseed rape (Brassica napus), waterhemp (common waterhemp, Amaranthus rudis), and velvetleaf (Abutilon theophrasti) were planted into a blend of loam soil and sand and treated preemergence with test chemicals formulated in a non-phytotoxic solvent mixture which included a surfactant.\n(§3) At the same time, plants selected from these crop and weed species and also chickweed (common chickweed, Stellaria media), kochia (Kochia scoparia), and oat, wild (wild oat, Avena fatua), were planted in pots containing Redi-Earth® planting medium (Scotts Company, 14111 Scottslawn Road, Marysville, Ohio 43041) comprising spaghnum peat moss, vermiculite, wetting agent and starter nutrients and treated with postemergence applications of test chemicals formulated in the same manner. Plants ranged in height from 2 to 18 cm (1- to 4-leaf stage) for postemergence treatments. Treated plants and controls were maintained in a greenhouse for 13 to 15 d, after which time all species were compared to controls and visually evaluated. Plant response ratings, summarized in Table C, are based on a scale of 0 to 100 where 0 is no effect and 100 is complete control. A dash (-) response means no test result."}, "corn (Zea mays)": {"test_system": "corn (Zea mays)", "assay": "Test C greenhouse herbicide test, pre- and postemergence", "source_text": "as §2, §3"}, "[3]": {"test_system": "barnyardgrass (Echinochloa crus-galli)", "assay": "Test C greenhouse herbicide test, pre- and postemergence", "source_text": "as §2, §3"}, "[4]": {"test_system": "wheat (winter wheat, Triticum aestivum)", "assay": "Test C greenhouse herbicide test, pre- and postemergence", "source_text": "as §2, §3"}, "[5]": {"test_system": "waterhemp (common waterhemp, Amaranthus rudis)", "assay": "Test C greenhouse herbicide test, pre- and postemergence", "source_text": "as §2, §3"}, "[6]": {"test_system": "foxtail, giant (giant foxtail, Setaria faberii)", "assay": "Test C greenhouse herbicide test, pre- and postemergence", "source_text": "as §2, §3"}, "[7]": {"test_system": "johnsongrass (Sorghum halepense)", "assay": "Test C greenhouse herbicide test, pre- and postemergence", "source_text": "as §2, §3"}, "[8]": {"test_system": "ragweed (common ragweed, Ambrosia elatior)", "assay": "Test C greenhouse herbicide test, pre- and postemergence", "source_text": "as §2, §3"}, "[9]": {"test_system": "crabgrass, large (large crabgrass, Digitaria sanguinalis)", "assay": "Test C greenhouse herbicide test, pre- and postemergence", "source_text": "as §2, §3"}, "[10]": {"test_system": "pigweed (Amaranthus retroflexus)", "assay": "Test C greenhouse herbicide test, pre- and postemergence", "source_text": "as §2, §3"}, "[11]": {"test_system": "morningglory (Ipomoea coccinea)", "assay": "Test C greenhouse herbicide test, pre- and postemergence", "source_text": "as §2, §3"}, "soybean (Glycine max)": {"test_system": "soybean (Glycine max)", "assay": "Test C greenhouse herbicide test, pre- and postemergence", "source_text": "as §2, §3"}, "[12]": {"test_system": "lambsquarters (Chenopodium album)", "assay": "Test C greenhouse herbicide test, pre- and postemergence", "source_text": "as §2, §3"}, "[13]": {"test_system": "blackgrass (Alopecurus myosuroides)", "assay": "Test C greenhouse herbicide test, pre- and postemergence", "source_text": "as §2, §3"}, "[14]": {"settings": "Postemergence, 16 g ai/ha, scale 0 to 100 (0 no effect, 100 complete control)"}, "[15]": {"settings": "Postemergence, 31 g ai/ha, 0 to 100 scale (0 no effect, 100 complete control)"}, "[16]": {"settings": "Postemergence, 125 g ai/ha, scale 0 to 100, 0 is no effect, 100 is complete control"}, "[17]": {"settings": "postemergence, 62 g ai/ha, scale 0 to 100, 0 no effect, 100 complete control"}},
  "data": [
    {"smiles": "COc1ccc2ccccc2c1-c1c(O)c(C)nn(C)c1=O", "note": "[Compound 40]", "values": [
      {"measurement": "Plant response rating, Oat, Wild", "setting": "[1]; [14]", "value": 5},
      {"measurement": "Oat, Wild plant response rating", "setting": "[1]; [15]", "value": 35},
      {"measurement": "Plant response rating, Oat, Wild", "setting": "[1]; [16]", "value": 60},
      {"measurement": "Oat, Wild plant response rating", "setting": "[1]; [17]", "value": 50},
      {"measurement": "Plant response rating, Kochia", "setting": "kochia (Kochia scoparia); [14]", "value": 20},
      {"measurement": "Kochia plant response rating", "setting": "kochia (Kochia scoparia); [15]", "value": 70},
      {"measurement": "Plant response rating, Kochia", "setting": "kochia (Kochia scoparia); [16]", "value": 0},
      {"measurement": "Kochia plant response rating", "setting": "kochia (Kochia scoparia); [17]", "value": 80},
      {"measurement": "Plant response rating, Ryegrass, Italian", "setting": "[2]; [14]", "value": 10},
      {"measurement": "Ryegrass, Italian plant response rating", "setting": "[2]; [15]", "value": 50},
      {"measurement": "Plant response rating, Ryegrass, Italian", "setting": "[2]; [16]", "value": 80},
      {"measurement": "Ryegrass, Italian plant response rating", "setting": "[2]; [17]", "value": 65},
      {"measurement": "Plant response rating, Corn", "setting": "corn (Zea mays); [14]", "value": 0},
      {"measurement": "Corn plant response rating", "setting": "corn (Zea mays); [15]", "value": 0},
      {"measurement": "Plant response rating, Corn", "setting": "corn (Zea mays); [16]", "value": 20},
      {"measurement": "Corn plant response rating", "setting": "corn (Zea mays); [17]", "value": 0},
      {"measurement": "Plant response rating, Barnyardgrass", "setting": "[3]; [14]", "value": 5},
      {"measurement": "Barnyardgrass plant response rating", "setting": "[3]; [15]", "value": 5},
      {"measurement": "Plant response rating, Barnyardgrass", "setting": "[3]; [16]", "value": 25},
      {"measurement": "Barnyardgrass plant response rating", "setting": "[3]; [17]", "value": 15},
      {"measurement": "Plant response rating, Wheat", "setting": "[4]; [14]", "value": 0},
      {"measurement": "Wheat plant response rating", "setting": "[4]; [15]", "value": 10},
      {"measurement": "Plant response rating, Wheat", "setting": "[4]; [16]", "value": 10},
      {"measurement": "Wheat plant response rating", "setting": "[4]; [17]", "value": 10},
      {"measurement": "Plant response rating, Waterhemp", "setting": "[5]; [14]", "value": 20},
      {"measurement": "Waterhemp plant response rating", "setting": "[5]; [15]", "value": 65},
      {"measurement": "Plant response rating, Waterhemp", "setting": "[5]; [16]", "value": 80},
      {"measurement": "Waterhemp plant response rating", "setting": "[5]; [17]", "value": 65},
      {"measurement": "Plant response rating, Foxtail, Giant", "setting": "[6]; [14]", "value": 5},
      {"measurement": "Foxtail, Giant plant response rating", "setting": "[6]; [15]", "value": 5},
      {"measurement": "Plant response rating, Foxtail, Giant", "setting": "[6]; [16]", "value": 20},
      {"measurement": "Foxtail, Giant plant response rating", "setting": "[6]; [17]", "value": 15},
      {"measurement": "Plant response rating, Johnsongrass", "setting": "[7]; [14]", "value": 0},
      {"measurement": "Johnsongrass plant response rating", "setting": "[7]; [15]", "value": 0},
      {"measurement": "Plant response rating, Johnsongrass", "setting": "[7]; [16]", "value": 5},
      {"measurement": "Johnsongrass plant response rating", "setting": "[7]; [17]", "value": 5},
      {"measurement": "Plant response rating, Ragweed", "setting": "[8]; [14]", "value": 25},
      {"measurement": "Ragweed plant response rating", "setting": "[8]; [15]", "value": 45},
      {"measurement": "Plant response rating, Ragweed", "setting": "[8]; [16]", "value": 85},
      {"measurement": "Ragweed plant response rating", "setting": "[8]; [17]", "value": 75},
      {"measurement": "Plant response rating, Crabgrass, Large", "setting": "[9]; [14]", "value": 5},
      {"measurement": "Crabgrass, Large plant response rating", "setting": "[9]; [15]", "value": 5},
      {"measurement": "Plant response rating, Crabgrass, Large", "setting": "[9]; [16]", "value": 10},
      {"measurement": "Crabgrass, Large plant response rating", "setting": "[9]; [17]", "value": 5},
      {"measurement": "Plant response rating, Pigweed", "setting": "[10]; [14]", "value": 15},
      {"measurement": "Pigweed plant response rating", "setting": "[10]; [15]", "value": 35},
      {"measurement": "Plant response rating, Pigweed", "setting": "[10]; [16]", "value": 85},
      {"measurement": "Pigweed plant response rating", "setting": "[10]; [17]", "value": 65},
      {"measurement": "Plant response rating, Morningglory", "setting": "[11]; [14]", "value": 5},
      {"measurement": "Morningglory plant response rating", "setting": "[11]; [15]", "value": 55},
      {"measurement": "Plant response rating, Morningglory", "setting": "[11]; [16]", "value": 80},
      {"measurement": "Morningglory plant response rating", "setting": "[11]; [17]", "value": 65},
      {"measurement": "Plant response rating, Soybean", "setting": "soybean (Glycine max); [14]", "value": 35},
      {"measurement": "Soybean plant response rating", "setting": "soybean (Glycine max); [15]", "value": 5},
      {"measurement": "Plant response rating, Soybean", "setting": "soybean (Glycine max); [16]", "value": 30},
      {"measurement": "Soybean plant response rating", "setting": "soybean (Glycine max); [17]", "value": 60},
      {"measurement": "Plant response rating, Lambsquarters", "setting": "[12]; [14]", "value": 50},
      {"measurement": "Lambsquarters plant response rating", "setting": "[12]; [15]", "value": 70},
      {"measurement": "Plant response rating, Lambsquarters", "setting": "[12]; [16]", "value": 80},
      {"measurement": "Lambsquarters plant response rating", "setting": "[12]; [17]", "value": 70},
      {"measurement": "Plant response rating, Blackgrass", "setting": "[13]; [14]", "value": 5},
      {"measurement": "Blackgrass plant response rating", "setting": "[13]; [15]", "value": 5},
      {"measurement": "Plant response rating, Blackgrass", "setting": "[13]; [16]", "value": 45},
      {"measurement": "Blackgrass plant response rating", "setting": "[13]; [17]", "value": 15}
    ]}
  ]
}
